Data set [1] can be described thus: Particle size diameter (PSD) of nitisinone before and after air-jet micronization. The data set is classed as physicochemical. The source says:
A lab-scale air-jet mill, 2 inches qualification model, Sturtevant Inc., was used to micronize nitisinone obtained from the company Bachem, Switzerland. The mill was operated with tangential flow (i.e. the air and drug are fed in the same direction in the milling chamber). The unmilled drug was fed into the mill using a Venturi feed system, Syncron®, Magnet Feeder model F-TO-C, where air was used to draw the feed material into the milling chamber. A product filter bag was affixed to the outlet of the mill, through which the exhausts and the milled drug collects. The milling conditions were set as follows: • Grind air: Dry nitrogen gas • Grind pressure: 90 psi • Feed pressure: 85 psi • Room conditions: Ambient 5 g of the API was passed through the lab-scale micronizer and the resulting material was collected (3.7 g). The material was analyzed for/by particle size diameter (PSD), assay and purity by high performance liquid chromatography (HPLC), x-ray powder diffraction (XRPD), differential scanning calorimetry (DSC) and polarized light microscopy (PLM).

Data set [2] is described as follows: Stability of oxotetrahydroxanthenone solutions, LC-MS. The data set is classed as physicochemical. As for the experimental part: The stability study of the main degradation product in Example 6, oxotetrahydroxanthenone, is performed under similar conditions as described in Example 6. Samples of oxotetrahydroxanthenone (OTHX), 81 μg/ml in either citrate buffer pH 3.0 or phosphate buffer pH 6.8, were put on stability at +5° C., +25° C. and +37° C., respectively, for 6 months. The concentrations of OTHX and the secondary degradation products 1,3-cyclohexanedione (CHD) and 4-(trifluoromethyl)salicylic acid (TSA) were analyzed by LC-MS. The results, shown in Table XI, below, are expressed as percent of the initial concentration of OTHX. The mass balance expressed as the total recovery of CHD+OTHX+TSA compared to the initial concentration of OTHX were calculated from MmOTHX/(Mm CHD+MmTSA)×(CHDconc+TSAconc)+OTHXconc expressed in μg/ml where MmOTHX, MmCHD and MmTSA are the molecular masses corresponding to 282, 202 and 206 g/mol, respectively.

[3] abbreviates: Citrate buffer pH 3.0, 5° C., 1.8 months.
The mark [4] stands for this setting: Citrate buffer pH 3.0, 5° C., 3 months.
[5] abbreviates: Citrate buffer pH 3.0, 5° C., 6 months.
Where [6] appears, read: Citrate buffer pH 3.0, 25° C., 1.8 months.
The mark [7] stands for this setting: Citrate buffer pH 3.0, 25° C., 3 months.
Setting [8] is: Citrate buffer pH 3.0, 25° C., 6 months.
Setting [9] is: Citrate buffer pH 3.0, 37° C., 1.8 months.
Setting [10] is: Citrate buffer pH 3.0, 37° C., 3 months.
The mark [11] stands for this setting: Citrate buffer pH 3.0, 37° C., 6 months.
The mark [12] stands for this setting: Phosphate buffer pH 6.8, 5° C., 1.8 months.
Setting [13] is: Phosphate buffer pH 6.8, 5° C., 3 months.
The mark [14] stands for this setting: Phosphate buffer pH 6.8, 5° C., 6 months.
Where [15] appears, read: Phosphate buffer pH 6.8, 25° C., 1.8 months.
[16] abbreviates: Phosphate buffer pH 6.8, 25° C., 3 months.
Where [17] appears, read: Phosphate buffer pH 6.8, 25° C., 6 months.
The mark [18] stands for this setting: Phosphate buffer pH 6.8, 37° C., 1.8 months.
[19] abbreviates: Phosphate buffer pH 6.8, 37° C., 3 months.
The mark [20] stands for this setting: Phosphate buffer pH 6.8, 37° C., 6 months.

Structures are written as SMILES.

Turning to `O=C1CCCC(=O)C1C(=O)c1ccc(C(F)(F)F)cc1[N+](=O)[O-]` [Micronized material, 2-(2-nitro-4-trifluoromethylbenzoyl)-1,3-cyclohexanedione], in data set [1], the “Particle size diameter d10” value was found to be 0.30 microns, the “Particle size diameter d20” value is given as 0.47 microns, the “Particle size diameter d50” value was 1.29 microns and the “Particle size diameter d80” value was 2.59 microns. For the same molecule, the “Particle size diameter d90” value in data set [1] is recorded as 3.59 microns.

On to `O=C1CCCc2oc3cc(C(F)(F)F)ccc3c(=O)c21` [OTHX, 6-(trifluoromethyl)-3,4-dihydro-1H-xanthenene-1,9(2H)-dione], for which the “Concentration of OTHX” value is 96.7% of the initial concentration of OTHX in data set [2] (setting [3]); 96.9% of the initial concentration of OTHX in data set [2] (setting [4]); 91.6% of the initial concentration of OTHX in data set [2] (setting [5]); 96.7% of the initial concentration of OTHX in data set [2] (setting [6]); 102.7% of the initial concentration of OTHX in data set [2] (setting [7]); 92.3% of the initial concentration of OTHX in data set [2] (setting [8]). Besides, the “Concentration of OTHX” value in data set [2] (setting [9]) is on record as 97.9% of the initial concentration of OTHX; in data set [2] (setting [10]) it was 97.7% of the initial concentration of OTHX; in data set [2] (setting [11]), 95.3% of the initial concentration of OTHX; in data set [2] (setting [12]) it was 96.7% of the initial concentration of OTHX; in data set [2] (setting [13]), 91.0% of the initial concentration of OTHX; in data set [2] (setting [14]), 83.1% of the initial concentration of OTHX. For the same molecule, the “Concentration of OTHX” value was 74.8% of the initial concentration of OTHX in data set [2] (setting [15]); 63.2% of the initial concentration of OTHX in data set [2] (setting [16]); 44.8% of the initial concentration of OTHX in data set [2] (setting [17]); 33.5% of the initial concentration of OTHX in data set [2] (setting [18]); 13.7% of the initial concentration of OTHX in data set [2] (setting [19]); 0.4% of the initial concentration of OTHX in data set [2] (setting [20]). In addition, the “Concentration of secondary degradation product CHD” value in data set [2] (setting [3]), in data set [2] (setting [4]), in data set [2] (setting [5]), in data set [2] (setting [6]), in data set [2] (setting [7]) and in data set [2] (setting [8]) was 0.0% of the initial concentration of OTHX throughout. The “Concentration of secondary degradation product CHD” value in data set [2] (setting [9]) is reported as 0.0% of the initial concentration of OTHX; in data set [2] (setting [10]) it was 0.0% of the initial concentration of OTHX; in data set [2] (setting [11]), 0.0% of the initial concentration of OTHX; in data set [2] (setting [12]), 0.0% of the initial concentration of OTHX; in data set [2] (setting [13]), 0.7% of the initial concentration of OTHX; in data set [2] (setting [14]) it was 0.0% of the initial concentration of OTHX. In addition, the “Concentration of secondary degradation product CHD” value in data set [2] (setting [15]) is recorded as 7.7% of the initial concentration of OTHX; in data set [2] (setting [16]), 9.7% of the initial concentration of OTHX; in data set [2] (setting [17]), 25.2% of the initial concentration of OTHX; in data set [2] (setting [18]), 22.2% of the initial concentration of OTHX; in data set [2] (setting [19]), 21.5% of the initial concentration of OTHX; in data set [2] (setting [20]), 32.8% of the initial concentration of OTHX. Moreover, the “Concentration of secondary degradation product TSA” value in data set [2] (setting [3]), in data set [2] (setting [4]), in data set [2] (setting [5]), in data set [2] (setting [6]), in data set [2] (setting [7]) and in data set [2] (setting [8]) was 0.0% of the initial concentration of OTHX in each case. For the same molecule, the “Concentration of secondary degradation product TSA” value in data set [2] (setting [9]) is 0.2% of the initial concentration of OTHX; in data set [2] (setting [10]), 0.0% of the initial concentration of OTHX; in data set [2] (setting [11]), 0.0% of the initial concentration of OTHX; in data set [2] (setting [12]), 1.4% of the initial concentration of OTHX; in data set [2] (setting [13]), 1.9% of the initial concentration of OTHX; in data set [2] (setting [14]), 0.0% of the initial concentration of OTHX. Moreover, the “Concentration of secondary degradation product TSA” value in data set [2] (setting [15]) is reported as 13.0% of the initial concentration of OTHX; in data set [2] (setting [16]), 20.2% of the initial concentration of OTHX; in data set [2] (setting [17]) it was 36.4% of the initial concentration of OTHX; in data set [2] (setting [18]), 38.6% of the initial concentration of OTHX; in data set [2] (setting [19]) it was 49.1% of the initial concentration of OTHX; in data set [2] (setting [20]), 66.4% of the initial concentration of OTHX.

In the case of `O=C1CCCC(=O)C1C(=O)c1ccc(C(F)(F)F)cc1[N+](=O)[O-]` [Start material, 2-(2-nitro-4-trifluoromethylbenzoyl)-1,3-cyclohexanedione], in data set [1], the “Particle size diameter d10” value turned out to be 20.50 microns, the “Particle size diameter d20” value was 33.10 microns, the “Particle size diameter d50” value stood at 60.01 microns and the “Particle size diameter d80” value is on record as 94.42 microns. Further, the “Particle size diameter d90” value in data set [1] is given as 115.11 microns.

(Values after patent publication US20150174081A1, “LIQUID PHARMACEUTICAL COMPOSITION COMPRISING NITISINONE” (Swedish Orphan Biovitrum International AB, priority 2011, published 2015).)
